Measurements from patent publication US9499537B2, “Antiviral pyrrolopyridine derivatives and method for preparing the same” (KOREA RESEARCH INSTITUTE OF CHEMICAL TECHNOLOGY, priority 2011, dated 2016).

test system: MT-4 cells; assay: Cytotoxicity test in MT-4 cells (MTT method); format: cell-based; details: human
Experimental: In order to look into the HIV-1 inhibition effects of the compound of the present invention, an in vitro test for HIV-1 inhibition effects was carried out as follows according to a known method (H. Tanaka et al., J. Med. Chem., 1991, 34, 349). MT-4 cells were used as host cells, and the degree of the compound of the present invention inhibiting the cytotoxicity of the virus-infected MT-4 cells was investigated.
First, MT-4 cells were diffused at a concentration of 1×10^4 cell/well to a culture medium, and HIV-1 was inoculated so that the concentration was 500 TCI50 (concentration at which 50% of the cell is infected)/well. Immediately after the inoculation, the cell dispersion was transferred in 100 μL each to a flat microtiter plate in which the sample of the compound of the present invention was placed. The sample was incubated for approximately for 4 to 5 days at […], and the virus suppression effect was determined using an MTT method. In addition, the cytotoxicity was also determined by measuring the survivability of the experimentally virus-infected cells using an MTT method. As a comparative compound, azidothymidine (AZT) and raltegravir were used.

Row | Structure (SMILES) | CC60 (μM) ** : concentration at 50% cell damage with respect to MT-4 cells [µM]
1 | Cc1nc2c(c(C)c(C)n2Cc2nccs2)c(-c2ccc(Cl)cc2)c1[C@H](OC(C)(C)C)C(=O)O [Example 64, (S)-2-(Tert-butoxy)-2-(4-(4-chlorophenyl)-2,3,6-trimethyl-1-(thiazol-2-ylmethyl)-1H-pyrrolo[2,3-b]pyridin-5-yl)acetic acid] | 48.57
2 | COc1ccc(Cn2c(C)c(C)c3c(-c4ccc(Cl)cc4)c(C(OC(C)(C)C)C(=O)O)c(C)nc32)cc1 (stereo not drawn) [Example 9, 2-Tert-butoxy-2-(4-(4-chlorophenyl)-1-(4-methoxybenzyl)-2,3,6-trimethyl-1H-pyrrolo[2,3-b]pyridin-5-yl)acetic acid] | 18.04
3 | CCn1c(C)c(C)c2c(-c3ccc(Cl)cc3)c([C@H](OC(C)(C)C)C(=O)O)c(C)nc21 [Example 32, (S)-2-Tert-butoxy-2-(4-(4-chlorophenyl)-1-(ethyl)-2,3,6-trimethyl-1H-pyrrolo[2,3-b]pyridin-5-yl)acetic acid] | 23.48
4 | Cc1nc2c(c(C)c(C)n2CC2CCCCC2)c(-c2ccc(Cl)cc2)c1[C@H](OC(C)(C)C)C(=O)O [Example 50, (S)-2-(Tert-butoxy)-2-(4-(4-chlorophenyl)-1-(cyclohexylmethyl)-2,3,6-trimethyl-1H-pyrrolo[2,3-b]pyridin-5-yl)acetic acid] | 10.32
5 | Cc1nc2c(c(C)c(C)n2CCN2CCCC2)c(-c2ccc(Cl)cc2)c1[C@H](OC(C)(C)C)C(=O)O [Example 71] | 73.54
6 | Cc1nc2c(c(C)c(C)n2CCF)c(-c2ccc(Cl)cc2)c1[C@H](OC(C)(C)C)C(=O)O [Example 54, (S)-2-(Tert-butoxy)-2-(4-(4-chlorophenyl)-1-(2-fluoroethyl)-2,3,6-trimethyl-1H-pyrrolo[2,3-b]pyridin-5-yl)acetic acid] | 18.82
7 | COCCn1c(C)c(C)c2c(-c3ccc(Cl)cc3)c([C@H](OC(C)(C)C)C(=O)O)c(C)nc21 [Example 78, (S)-2-(tert-butoxy)-2-(4-(4-chlorophenyl)-1-(2-methoxyethyl)-2,3,6-trimethyl-1H-pyrrolo[2,3-b]pyridin-5-yl)acetic acid] | 18.36
8 | Cc1nc2c(c(C)c(C)n2Cc2ccoc2)c(-c2ccc(Cl)cc2)c1[C@H](OC(C)(C)C)C(=O)O [Example 62, (S)-2-(Tert-butoxy)-2-(4-(4-chlorophenyl)-1-(furan-3-ylmethyl)-2,3,6-trimethyl-1H-pyrrolo[2,3-b]pyridin-5-yl)acetic acid] | 15.34
9 | Cc1nc2c(c(C)c(C)n2Cc2ccn(C)n2)c(-c2ccc(Cl)cc2)c1[C@H](OC(C)(C)C)C(=O)O [Example 79, (S)-2-(tert-butoxy)-2-(4-(4-chlorophenyl)-2,3,6-trimethyl-1-((1-methyl-1H-pyrazol-3-yl)methyl)-1H-pyrrolo[2,3-b]pyridin-5-yl)acetic acid] | 25.09
10 | Cc1nc2c(c(C)c(C)n2Cc2cccnc2F)c(-c2ccc(Cl)cc2)c1[C@H](OC(C)(C)C)C(=O)O [Example 68, (S)-2-(Tert-butoxy)-2-(4-(4-chlorophenyl)-1-((2-fluoropyridin-3-yl)methyl)-2,3,6-trimethyl-1H-pyrrolo[2,3-b]pyridin-5-yl)acetic acid] | 17.14
11 | Cc1nc2c(c(C)c(C)n2CC(C)C)c(-c2ccc(Cl)cc2)c1C(OC(C)(C)C)C(=O)O (stereo not drawn) [Example 17, 2-Tert-butoxy-2-(4-(4-chlorophenyl)-1-isobutyl-2,3,6-trimethyl-1H-pyrrolo[2,3-b]pyridin-5-yl)acetic acid] | 17.57
12 | Cc1nc2c(c(C)c(C)n2CCCC#N)c(-c2ccc(Cl)cc2)c1[C@H](OC(C)(C)C)C(=O)O [Example 60, (S)-2-(Tert-butoxy)-2-(4-(4-chlorophenyl)-1-(3-cyanopropyl)-2,3,6-trimethyl-1H-pyrrolo[2,3-b]pyridin-5-yl)acetic acid] | 18.23
13 | Cc1nc2c(c(C)c(C)n2Cc2ccco2)c(-c2ccc(Cl)cc2)c1[C@H](OC(C)(C)C)C(=O)O [Example 44, (S)-2-(Tert-butoxy)-2-(4-(4-chlorophenyl)-1-(furan-2-ylmethyl)-2,3,6-trimethyl-1H-pyrrolo[2,3-b]pyridin-5-yl)acetic acid] | 18.06
14 | CCCCn1c(C)c(C)c2c(-c3ccc(Cl)cc3)c(C(OC(C)(C)C)C(=O)O)c(C)nc21 (stereo not drawn) [Example 16, 2-Tert-butoxy-2-(1-butyl-4-(4-chlorophenyl)-2,3,6-trimethyl-1H-pyrrolo[2,3-b]pyridin-5-yl)acetic acid] | >219
15 | Cc1nc2c(c(C)c(C)n2CC2CC2)c(-c2cc(F)c3c(c2C)CCCO3)c1[C@H](OC(C)(C)C)C(=O)O [Example 76, (S)-2-(Tert-butoxy)-2-((R)-1-(cyclopropylmethyl)-4-((R)-8-fluoro-5-methylchroman-6-yl)-2,3,6-trimethyl-1H-pyrrolo[2,3-b]pyridin-5-yl)acetic acid] | 13.94
16 | Cc1nc2c(c(C)c(C)n2CC(=O)N(C)C)c(-c2ccc(Cl)cc2)c1[C@H](OC(C)(C)C)C(=O)O [Example 51, (S)-2-(Tert-butoxy)-2-(4-(4-chlorophenyl)-1-(2-(dimethylamino)-2-oxoethyl)-2,3,6-trimethyl-1H-pyrrolo[2,3-b]pyridin-5-yl)acetic acid] | 96.68
17 | Cc1nc2c(c(C)c(C)n2CCO)c(-c2ccc(Cl)cc2)c1C(OC(C)(C)C)C(=O)O (stereo not drawn) [Example 24, 2-Tert-butoxy-2-(4-(4-chlorophenyl)-1-(2-hydroxyethyl)-2,3,6-trimethyl-1H-pyrrolo[2,3-b]pyridin-5-yl)acetic acid] | 75.04
18 | Cc1nc2c(c(C)c(C)n2Cc2ccccn2)c(-c2ccc(Cl)cc2)c1C(OC(C)(C)C)C(=O)O (stereo not drawn) [Example 13, 2-Tert-butoxy-2-(4-(4-chlorophenyl)-2,3,6-trimethyl-1-(pyridin-2-ylmethyl)-1H-pyrrolo[2,3-b]pyridin-5-yl)acetic acid] | 85.91
19 | Cc1nc2c(c(C)c(C)n2CC(F)(F)F)c(-c2ccc(Cl)cc2)c1[C@H](OC(C)(C)C)C(=O)O [Example 59, (S)-2-(Tert-butoxy)-2-(4-(4-chlorophenyl)-2,3,6-trimethyl-1-(2,2,2-trifluoromethyl)-1H-pyrrolo[2,3-b]pyridin-5-yl)acetic acid] | 5.3
20 | C#CCn1c(C)c(C)c2c(-c3ccc(Cl)cc3)c(C(OC(C)(C)C)C(=O)O)c(C)nc21 (stereo not drawn) [Example 20, 2-Tert-butoxy-2-(4-(4-chlorophenyl)-2,3,6-trimethyl-1-(prop-2-ynyl)-1H-pyrrolo[2,3-b]pyridin-5-yl)acetic acid] | 18.77
21 | Cc1nc2c(c(C)c(C)n2CC2CC2)c(-c2ccc(Cl)cc2)c1[C@H](OC(C)(C)C)C(=O)O [Example 28, (S)-2-Tert-butoxy-2-(4-(4-chlorophenyl)-1-(cyclopropylmethyl)-2,3,6-trimethyl-1H-pyrrolo[2,3-b]pyridin-5-yl)acetic acid] | 20.4
22 | Cc1nc2c(c(C)c(C)n2CN2C(=O)c3ccccc3C2=O)c(-c2ccc(Cl)cc2)c1C(OC(C)(C)C)C(=O)O (stereo not drawn) [Example 19, 2-Tert-butoxy-2-(4-(4-chlorophenyl)-1-((1,3-dioxoisoindolin-2-yl)methyl)-2,3,6-trimethyl-1H-pyrrolo[2,3-b]pyridin-5-yl)acetic acid] | >179
23 | Cc1nc2c(c(C)c(C)n2C)c(-c2ccc3c(c2Cl)CCCO3)c1[C@H](OC(C)(C)C)C(=O)O [Example 73, (S)-2-(tert-butoxy)-2-((S)-4-(5-chlorochroman-6-yl)-1,2,3,6-tetramethyl-1H-pyrrolo[2,3-b]pyridin-5-yl)acetic acid] | 25.1
24 | Cc1nc2[nH]c(C)c(C)c2c(-c2ccc(Cl)cc2)c1C(OC(C)(C)C)C(=O)O (stereo not drawn) [Example 25, 2-Tert-butoxy-2-(4-(4-chlorophenyl)-2,3,6-trimethyl-1H-pyrrolo[2,3-b]pyridin-5-yl)acetic acid] | 108
25 | Cc1nc2c(c(C)c(C)n2Cc2cncnc2)c(-c2ccc(Cl)cc2)c1[C@H](OC(C)(C)C)C(=O)O [Example 55, (S)-2-(Tert-butoxy)-2-(4-(4-chlorophenyl)-2,3,6-trimethyl-1-(pyrimidin-5-ylmethyl)-1H-pyrrolo[2,3-b]pyridin-5-yl)acetic acid] | 64.73
26 | Cc1nc2c(c(C)c(C)n2CC#N)c(-c2ccc(Cl)cc2)c1C(OC(C)(C)C)C(=O)O (stereo not drawn) [Example 22, 2-Tert-butoxy-2-(4-(4-chlorophenyl)-1-cyanomethyl-2,3,6-trimethyl-1H-pyrrolo[2,3-b]pyridin-5-yl)acetic acid] | 114.47
27 | Cc1nc2c(c(C)c(C)n2CCC#N)c(-c2ccc(Cl)cc2)c1[C@H](OC(C)(C)C)C(=O)O [Example 30, (S)-2-Tert-butoxy-2-(4-(4-chlorophenyl)-1-(2-cyanoethyl)-2,3,6-trimethyl-1H-pyrrolo[2,3-b]pyridin-5-yl)acetic acid] | 30.86
